Here are results for eleven compounds from patent US20260226071A1, “2, 4-DIANILINOPYRIMIDINE-BASED AURORA-A KINASE SELECTIVE DEGRADATION INDUCING COMPOUNDS” (UPPTHERA, INC., priority 2023, published 2026).

The structures appear in SMILES notation.

One test addresses T1, Aurora kinase A (AURKA) (Homo sapiens, UniProt O14965).
T1 construct: endogenous in cells; host or cells: HeLa LgBit (AURKA-HiBit KI), CRISPR/Cas9 knock-in at the endogenous AURKA locus
T1 sequence (O14965 1-403): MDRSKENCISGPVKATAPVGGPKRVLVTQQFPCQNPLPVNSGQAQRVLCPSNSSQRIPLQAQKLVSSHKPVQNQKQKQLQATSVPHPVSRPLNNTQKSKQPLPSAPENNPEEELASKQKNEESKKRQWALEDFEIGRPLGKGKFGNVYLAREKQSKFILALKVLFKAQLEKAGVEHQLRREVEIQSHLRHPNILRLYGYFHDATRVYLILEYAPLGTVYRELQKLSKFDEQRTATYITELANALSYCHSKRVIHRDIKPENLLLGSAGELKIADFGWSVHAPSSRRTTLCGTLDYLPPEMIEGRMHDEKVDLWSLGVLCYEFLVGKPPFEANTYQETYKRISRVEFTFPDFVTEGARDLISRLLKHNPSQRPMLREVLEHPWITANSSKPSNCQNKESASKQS
Description: Luciferase assay for AURKA in HeLa LgBit (AURKA-HiBit KI) cell line. It is filed as cell-based. Conditions: HeLa LgBit (AURKA-HiBit KI) cells, measured after 12 hours. The method, boiled down: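 Test compounds (10 nM or 100 nM) added to AURKA-HiBit knock-in HeLa LgBit cells that had been pre-loaded with Endurazine for 2 h following an 18 h culture at 3×10^4 cells. Endogenous AURKA-HiBit level followed by luminescence (470-480 nm), measured after 12 h.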
For orientation: HiBiT is a short tag that completes a luciferase, so light tracks the accessible tagged protein.

The next test relates to NCI-H446 cell line. Description: Cell viability assay for NCI-H446 cell line. It is filed as cell-based. Conditions: Homo sapiens, NCI-H446, 120 h; H446 cells, 5 days culture, EZ-Cytox; read-out: IC50 value (Level). The method, boiled down:
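Viability was measured by absorbance at 450 nm after 4 h with EZ-Cytox, following 5-day exposure of NCI-H446 cells (RPMI 1640, 10% FBS, 37 °C, 5% CO2) to 3-fold serial dilutions from 1000 nM down to 0.15 nM, added 24 h post-seeding.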

With `CN(CC1CCN(c2ccc(C3CCC(=O)NC3=O)cc2)CC1)[C@H]1CC[C@H](NC(=O)c2ccc(Nc3ncc(F)c(Nc4ccc(C(=O)Nc5ccccc5Cl)cc4)n3)cc2)CC1` (stereo partly drawn) [Compound 49, N-(2-chlorophenyl)-4-((2-((4-(((1r,4r)-4-(((1-(4-(2,6-dioxopiperidin-3-yl)phenyl)piperidin-4-yl)methyl)(methyl)amino)cyclohexyl)carbamoyl)phenyl)amino)-5-fluoropyrimidin-4-yl)amino)benzamide], the “luminescence value (Level)” value at Aurora kinase A (AURKA) (10 nM compound) is “A (A is <0.3)”; on Aurora kinase A (AURKA) (100 nM compound), “A (A is <0.2)”. Also, the half-maximal inhibitory concentration (IC50) (commonly the point on the concentration scale where inhibition reaches its midpoint) in the test with NCI-H446 cell line is under 50 nM.

Take `O=C1CCC(c2ccc(N3CCN(CCCC4CCN(NC(=O)c5ccc(Nc6ncc(F)c(Nc7ccc(C(=O)Nc8ccccc8Cl)cc7)n6)cc5)CC4)CC3)cc2)C(=O)N1` (stereo not drawn) [Compound 52, N-(2-chlorophenyl)-4-((2-((4-((4-(3-(4-(4-(2,6-dioxopiperidin-3-yl)phenyl)piperazin-1-yl)propyl)piperidin-1-yl)carbamoyl)phenyl)amino)-5-fluoropyrimidin-4-yl)amino)benzamide]: the “luminescence value (Level)” value on Aurora kinase A (AURKA) (10 nM compound) was “A (A is <0.3)”; on Aurora kinase A (AURKA) (100 nM compound), “A (A is <0.2)”. The concentration for half-maximal inhibition (IC50) in the test on NCI-H446 cell line is under 50 nM.

Consider `O=C1CCC(c2ccc(N3CCC(CN4CC5(CCN(NC(=O)c6ccc(Nc7ncc(F)c(Nc8ccc(C(=O)Nc9ccccc9Cl)cc8)n7)cc6)CC5)C4)CC3)c(F)c2)C(=O)N1` (stereo not drawn) [Compound 97, N-(2-chlorophenyl)-4-((2-((4-((2-((1-(4-(2,6-dioxopiperidin-3-yl)-2-fluorophenyl)piperidin-4-yl)methyl)-2,7-diazaspiro[3.5]nonan-7-yl)carbamoyl)phenyl)amino)-5-fluoropyrimidin-4-yl)amino)benzamide], for which the “luminescence value (Level)” value at Aurora kinase A (AURKA) (10 nM compound) is given as “B (B is 0.3 to 0.5)”; at Aurora kinase A (AURKA) (100 nM compound) it was “A (A is <0.2)”. Further, in the test on NCI-H446 cell line, the IC50 lay in the range of 50 to 100 nM.

Consider `CN(CC1CCN(c2ccc(C3CCC(=O)NC3=O)cc2F)CC1)C1CCN(NC(=O)c2ccc(Nc3ncc(F)c(Nc4ccc(C(=O)Nc5ccccc5Cl)cc4)n3)cc2)CC1` (stereo not drawn) [Compound 81, N-(2-chlorophenyl)-4-((2-((4-((4-(((1-(4-(2,6-dioxopiperidin-3-yl)-2-fluorophenyl)piperidin-4-yl)methyl)(methyl)amino)piperidin-1-yl)carbamoyl)phenyl)amino)-5-fluoropyrimidin-4-yl)amino)benzamide], for which the “luminescence value (Level)” value on Aurora kinase A (AURKA) (10 nM compound) is given as “A (A is <0.3)”; on Aurora kinase A (AURKA) (100 nM compound), “A (A is <0.2)”. Moreover, the IC50 in the test on NCI-H446 cell line is under 50 nM.

For the compound `CN(CCN1CCN(c2ccc(C3CCC(=O)NC3=O)cc2)CC1)[C@H]1CC[C@H](NC(=O)c2ccc(Nc3ncc(F)c(Nc4ccc(C(=O)Nc5ccccc5Cl)cc4)n3)cc2)CC1` (stereo partly drawn) [Compound 75, N-(2-chlorophenyl)-4-((2-((4-(((1r,4r)-4-((2-(4-(4-(2,6-dioxopiperidin-3-yl)phenyl)piperazin-1-yl)ethyl)(methyl)amino)cyclohexyl)carbamoyl)phenyl)amino)-5-fluoropyrimidin-4-yl)amino)benzamide], the “luminescence value (Level)” value was “A (A is <0.3)” on Aurora kinase A (AURKA) (10 nM compound) and “A (A is <0.2)” at Aurora kinase A (AURKA) (100 nM compound). The IC50 in the test on NCI-H446 cell line lay within 50 to 100 nM.

As to `O=C1CCC(c2ccc(N3CCN(CC(=O)N4CCC(NC(=O)c5ccc(Nc6ncc(F)c(Nc7ccc(C(=O)Nc8ccccc8Cl)cc7)n6)cc5)CC4)CC3)cc2)C(=O)N1` (stereo not drawn) [Compound 5, N-(2-chlorophenyl)-4-((2-((4-((1-(2-(4-(4-(2,6-dioxopiperidin-3-yl)phenyl)piperazin-1-yl)acetyl)piperidin-4-yl)carbamoyl)phenyl)amino)-5-fluoropyrimidin-4-yl)amino)benzamide], the “luminescence value (Level)” value on Aurora kinase A (AURKA) (10 nM compound) is “B (B is 0.3 to 0.5)”; on Aurora kinase A (AURKA) (100 nM compound), “A (A is <0.2)”. In addition, in the test on NCI-H446 cell line, the IC50 was under 50 nM.

Take `O=C1CC[C@@H](Nc2ccc(N3CCN(CCC4CCN(NC(=O)c5ccc(Nc6ncc(F)c(Nc7ccc(C(=O)Nc8ccccc8Cl)cc7)n6)cc5)CC4)CC3)c(F)c2)C(=O)N1` [Compound 108, (R)—N-(2-chlorophenyl)-4-((2-((4-((4-(2-(4-(4-((2,6-dioxopiperidin-3-yl)amino)-2-fluorophenyl)piperazin-1-yl)ethyl)piperidin-1-yl)carbamoyl)phenyl)amino)-5-fluoropyrimidin-4-yl)amino)benzamide]: the results for the “luminescence value (Level)” value on Aurora kinase A (AURKA) (10 nM compound) and at Aurora kinase A (AURKA) (100 nM compound) were “A (A is <0.3)” and “A (A is <0.2)”, respectively. The IC50 in the test with NCI-H446 cell line was under 50 nM.

For the compound `O=C1CCC(c2ccc(N3CCN(CCC4CCN(C(=O)c5ccc(Nc6ncc(F)c(Nc7ccc(C(=O)Nc8ccccc8Cl)cc7)n6)cc5)CC4)CC3)cc2)C(=O)N1` (stereo not drawn) [Compound 110, N-(2-chlorophenyl)-4-[[2-[4-[4-[2-[4-[4-(2,6-dioxo-3-piperidyl)phenyl]piperazin-1-yl]ethyl]piperidine-1-carbonyl]anilino]-5-fluoro-pyrimidin-4-yl]amino]benzamide], the figures for the “luminescence value (Level)” value at Aurora kinase A (AURKA) (10 nM compound) and on Aurora kinase A (AURKA) (100 nM compound) were “C (C is 0.5 to 0.7)” and “B (B is 0.2 to 0.4)”, respectively. Further, the IC50 with NCI-H446 cell line lay within 150 to 200 nM.

Take `O=C1CCC(c2ccc(N3CCN(CCC4CCN(NC(=O)c5ccc(Nc6ncc(F)c(Nc7ccc(C(=O)Nc8ccccc8F)cc7)n6)cc5)CC4)CC3)cc2)C(=O)N1` (stereo not drawn) [Compound 90, 4-[[2-[4-[[4-[2-[4-[4-(2,6-dioxo-3-piperidyl)phenyl]piperazin-1-yl]ethyl]-1-piperidyl]carbamoyl]anilino]-5-fluoro-pyrimidin-4-yl]amino]-N-(2-fluorophenyl)benzamide]: the “luminescence value (Level)” value on Aurora kinase A (AURKA) (10 nM compound) was “A (A is <0.3)”; on Aurora kinase A (AURKA) (100 nM compound) it was “A (A is <0.2)”. Further, in the test on NCI-H446 cell line, the IC50 is under 50 nM.

`O=C1CCC(c2ccc(N3CCN(CCN4CCC(C(=O)Nc5ccc(Nc6ncc(F)c(Nc7ccc(C(=O)Nc8ccccc8Cl)cc7)n6)cc5)CC4)CC3)cc2)C(=O)N1` (stereo not drawn) [Compound 70, N-(4-((4-((4-((2-chlorophenyl)carbamoyl)phenyl)amino)-5-fluoropyrimidin-2-yl)amino)phenyl)-1-(2-(4-(4-(2,6-dioxopiperidin-3-yl)phenyl)piperazin-1-yl)ethyl)piperidine-4-carboxamide]: the “luminescence value (Level)” value is “A (A is <0.3)” on Aurora kinase A (AURKA) (10 nM compound) and “A (A is <0.2)” on Aurora kinase A (AURKA) (100 nM compound). Further, the IC50 in the test with NCI-H446 cell line was 50 to 100 nM.

Regarding `O=C1CCC(c2ccc(N3CCC(CN4CCC5(CC4)CC(NC(=O)c4ccc(Nc6ncc(F)c(Nc7ccc(C(=O)Nc8ccccc8Cl)cc7)n6)cc4)C5)CC3)c(F)c2)C(=O)N1` (stereo not drawn) [Compound 23, N-(2-chlorophenyl)-4-((2-((4-((7-((1-(4-(2,6-dioxopiperidin-3-yl)-2-fluorophenyl)piperidin-4-yl)methyl)-7-azaspiro[3.5]nonan-2-yl)carbamoyl)phenyl)amino)-5-fluoropyrimidin-4-yl)amino)benzamide], the “luminescence value (Level)” value on Aurora kinase A (AURKA) (10 nM compound) is given as “B (B is 0.3 to 0.5)”; on Aurora kinase A (AURKA) (100 nM compound), “A (A is <0.2)”. Also, in the test with NCI-H446 cell line, the IC50 is under 50 nM.
